Test: in vitro
Settings: human, hela cells

Row | SMILES | viability at 28.5 h, 10 µM [%]
1 | C=CCSc1nnc(OC(=O)N(C)C)n1-c1ccc(Cl)cc1 [CBK004817] | 90.8

Same assay, conditions: human, hela cells, % viability

Row | SMILES | viability at 28.5 h, 10 µM [%]
2 | Cc1cc(C(=O)CSc2nncs2)c(C)n1C(C)c1ccccc1 (stereo not shown) [CBK297934] | 86.8
3 | CCOC(=O)C1CCCN(CCC(=O)Nc2cccc(C)c2)C1 (stereo not shown) [CBK264158C] | 107
4 | CC(C)N1CCc2c(sc3nc(SCc4ccc(Cl)cc4)n(Cc4ccccc4)c(=O)c23)C1 [CBK263745] | 84.4
5 | CCCC(NC(=O)Nc1ccnn1CC(C)C)c1nccn1C (stereo not shown) [CBK307444] | 92.7
6 | COc1ccc(Br)cc1C(=O)NCC1(c2ccccc2)CCOCC1 [CBK067051] | 82.7
7 | Cc1ccc(-c2csc3ncnc(NCCCc4n[nH]c(N)c4C#N)c23)cc1 [CBK297100] | 98.1
8 | Cc1cccc(C)c1N1CCN(CCn2c(=S)[nH]c3ccccc3c2=O)CC1 [CBK267998] | 89.9
9 | COc1ccc(CN2CCN(c3ccccn3)CC2)cc1OCc1ccccc1 [CBK261889] | 84.9
10 | O=C(Nc1ccc(O)cc1C(=O)O)c1ccc2c(c1)C(=O)N(Cc1ccccc1)C2=O [CBK266540] | 88.7
11 | CCn1c(SCC(=O)O)nnc1-c1c[nH]c2ccccc12 [CBK287089] | 85.9
12 | CC(=O)N1CCc2c([nH]c3c(C)cccc23)C12CCN(C/C=C\c1ccccc1)C2 (stereo not shown) [CBK040414] | 90.8
13 | c1ccc(N2CCN(c3cccc(-c4ccco4)n3)CC2)nc1 [CBK037662] | 107
14 | CCCCN(C(C)=O)c1c(CC)nc2ccc(C(=O)NCCCn3ccnc3)cn12 [CBK145759] | 96.1
15 | CC(C)Oc1ccccc1CN(C)C(C)c1ccc(S(N)(=O)=O)cc1 (stereo not shown) [CBK305436] | 94.4
16 | COc1ccc(C(=O)C2=C(O)C(=O)N(CCN3CCOCC3)C2c2ccc(Cl)cc2)cc1 (stereo not shown) [CBK264718] | 103
17 | COc1ncc(-c2cnc3[nH]c(=O)n([C@H](C)c4ccccc4)c3n2)cn1 [CBK064401] | 85.3
18 | O=c1[nH]c2ccccc2n1C1CCN(S(=O)(=O)c2cc(Cl)cc(Cl)c2O)CC1 [CBK149694] | 81.4
19 | COc1cc(/C=C(\C#N)c2nc3ccccc3n2C)cc([N+](=O)[O-])c1O [CBK263893] | 91.4
20 | CC(c1ccccc1)N1CCn2c(nc3cc(NC(=O)COc4ccccc4)ccc32)C1 (stereo not shown) [CBK268033] | 105
21 | CC(=O)N/C(=C/c1ccccc1)C(=O)NCCC(=O)O [CBK264046] | 87.2
22 | Nc1nnc(-c2cccc(Cl)c2Cl)c(N)n1 [CBK011590] | 85.8
23 | Cc1nc(C(F)(F)F)ccc1NC(=O)CSCC(=O)O [CBK056975] | 93.3

Row | SMILES | viability at 28.5 h, 10 µM [%]
24 | CC(=O)N1CCc2sccc2C1c1ccccc1NC(=O)C1CC1 (stereo not shown) [CBK282903] | 95
25 | O=C(CC1(O)C(=O)N(Cc2ccc3c(c2)OCO3)c2ccccc21)c1cccnc1 (stereo not shown) [CBK269633] | 103
26 | OCc1nc(-c2cccnc2)co1 [CBK018811] | 106
27 | NC(=O)CN1CCC(Oc2nccnc2OCc2cccnc2)CC1 [CBK083165] | 107
28 | COc1cc(C2c3c(oc4ccc(Cl)cc4c3=O)C(=O)N2CC2CCCO2)ccc1OCc1ccccc1 (stereo not shown) [CBK267581] | 89.5
29 | COc1ccc(-n2cc(-c3ccccc3C(F)(F)F)nn2)cc1OC [CBK112965] | 89.4
30 | CCn1cc(S(=O)(=O)NCc2ccccc2F)cn1 [CBK270306] | 91.6
31 | Cn1cc(-c2nc(C3CCCCCN3C(=O)c3cc(Cl)c[nH]3)no2)cn1 (stereo not shown) [CBK306396] | 86.4
32 | O=c1c2scc(-c3cccc(F)c3)c2ncn1Cc1ccc(F)cc1 [CBK287810] | 100
33 | Clc1ccc(COc2nccnc2N2CCN(CCOc3ccccc3)CC2)cc1Cl [CBK083091T] | 95.2
34 | Cn1c(C(=O)NCCc2ccc(S(=O)(=O)NC(=O)NC3CCCCC3)cc2)cc2ccccc21 [CBK011876] | 128
35 | O=S(=O)(Nc1cccc(-c2cnco2)c1)c1cccc2cccnc12 [CBK067104] | 81
36 | CC1CCN(S(=O)(=O)c2ccc(C(=O)N[C@@H](C)C(=O)O)cc2)CC1 [CBK297106] | 96.6
37 | Cc1ccc(-c2noc(CN(C(=O)c3ccc(Br)o3)C(C)C)n2)cc1 [CBK269440] | 83.2
38 | COc1ccccc1-c1cnc(Nc2ccc(N3CCOCC3)cc2)c2nccn12 [CBK091230] | 99.9
39 | COc1ccccc1-c1c(O)n[nH]c1C(C)C [CBK075133] | 111
40 | O=C(Nc1ccc2[nH]ccc2c1)c1ccc(F)c(F)c1 [CBK159683] | 88.3
41 | O=C(CN1CCC(c2cncc(-c3cccc(C(F)(F)F)c3)n2)CC1)N1CCCC1 [CBK286152] | 94.3
42 | O=C(C1CCC1)N1C2CCC1Cn1c(nc3ccccc3c1=O)C2 (stereo not shown) [CBK284453] | 91.5
43 | Cc1cc(NS(=O)(=O)c2cc(OCC(N)=O)c(C)cc2Cl)no1 [CBK266456] | 103
44 | CCc1ccc(C(O)CNC2CCN(CC(F)F)CC2)cc1 (stereo not shown) [CBK304144] | 109
45 | O=C(O)c1ccc(NC(=O)c2cn(-c3ccccc3)nc2-c2cc3ccccc3o2)cc1 [CBK266587C] | 106

Row | SMILES | viability at 28.5 h, 10 µM [%]
46 | COc1ccccc1-c1nn2c(Cn3nnc4ccccc43)nnc2s1 [CBK268373] | 82.4
47 | O=C(Cn1c(-c2ccc(F)cc2)cc2cccnc21)N1CCCC1 [CBK285384] | 102
48 | O=C(C1=C(O)C(=O)N(CCN2CCOCC2)C1c1cccnc1)c1ccco1 (stereo not shown) [CBK264570] | 97.4
49 | COC(=O)N1CC2(CCCCC2NCc2c[nH]c(C)n2)c2ccccc21 (stereo not shown) [CBK083547T] | 108
50 | O=C([C@@H]1C[C@@H](O)[C@H](O)[C@@H]2NC(=S)N(c3ccc4c(c3)OCO4)[C@@H]21)N1CCCCC1 [CBK288945] | 87.3
51 | CNC(=O)C1(Cc2ccccc2-c2ccccc2)CCN(C(=O)c2cccc(OC)c2)CC1 [CBK285922] | 85.3
52 | O=C(O)COc1ccc(NC(=O)c2ccc3c(c2)C(=O)N(C2CCCCC2)C3=O)cc1 [CBK266009] | 92.1
53 | Cc1cc(Br)ccc1NC(=O)C(=O)NC1CC1 [CBK269284] | 83.6
54 | CC(C)(C)c1cc(NC(=O)CN2CCN(c3cccc(Cl)c3)CC2)on1 [CBK304525] | 85.7
55 | CCNc1cc(N2CCN(C)CC2)ccc1NS(=O)(=O)c1ccc(F)cc1F [CBK001496C] | 95.8
56 | CCNc1cc(-c2ccco2)ncn1 [CBK090879] | 108
57 | Cc1cc(NS(=O)(=O)c2ccc(OCCNS(C)(=O)=O)cc2)no1 [CBK268530] | 102
58 | NC(=O)CN(CC(N)=O)S(=O)(=O)c1ccccc1 [CBK262490] | 85.4
59 | CC1CN(C(=O)OC(C)(C)C)CCN1c1nc2ccccc2nc1O (stereo not shown) [CBK003877C] | 116
60 | O=C(Cc1ccc(F)cc1F)Nc1ccc2cc[nH]c2c1 [CBK160044] | 102
61 | COc1cc(CNc2cc(-c3ccc(N4CCOCC4)cc3)ncn2)cc(OC)c1OC [CBK091174] | 93.9
62 | O=C(O)CCCC(=O)NCCc1ccc(Cl)cc1Cl [CBK296930] | 88.8
63 | O=C(Nc1nnc(-c2ccncc2)o1)c1ccc(Cl)cc1Cl [CBK287433] | 82.3
64 | CN(C)S(=O)(=O)c1c(Cl)cccc1Cl [CBK091643] | 84
65 | CCC1CN(Cc2ccccc2)CCN1c1cncc(Cl)n1 (stereo not shown) [CBK003645] | 112
66 | COC(=O)CCC(=O)NNC(=O)c1cccc(Br)c1 [CBK261606] | 107
67 | CCOc1ccc(-c2cncc(NC3CCC(O)CC3)n2)cc1 (stereo not shown) [CBK065877] | 88.9

Row | SMILES | viability at 28.5 h, 10 µM [%]
68 | COc1cc(OC)c(NC(=O)c2c(-c3ccccc3)noc2C)cc1Cl [CBK268167] | 101
69 | COc1ccccc1Oc1ccc([N+](=O)[O-])cc1F [CBK002850] | 90.8
70 | Cc1nc2cc(/N=C/c3c[nH]c4ccccc34)ccc2n1C [CBK262085] | 88.8
71 | Cc1cc(NS(=O)(=O)c2ccc(NC(=O)/C=C/c3ccc(C)o3)cc2)nc(C)n1 [CBK265474] | 96.5
72 | CCCC(=O)c1ccc(S(=O)(=O)N2CCN(Cc3c[nH]nc3-c3cccs3)CC2)cc1 [CBK063160] | 79.6
73 | COc1ccccc1C(=O)N1CCC(c2nc(C)n3ccccc23)C1 (stereo not shown) [CBK282221] | 88.4
74 | C#CCn1ncc2c3sc(C)cc3n(CC)c2c1=O [CBK284225] | 89.5
75 | CC1=CC(C)C(CN(CCC[N+](C)(C)C)C(=O)Nc2ccccc2)C(C)C1 (stereo not shown) [CBK262507I] | 84.3
76 | Cc1ccn(CCC(=O)N2CCCC(c3cc4cccnc4[nH]3)C2)n1 (stereo not shown) [CBK284927] | 99.7
77 | CC(=O)N1CCC(N2C[C@H](O)C[C@H]2c2nc(C3CC3)no2)CC1 [CBK288845] | 93.6
78 | CN(C(=O)c1ccccc1N)c1ccccc1 [CBK086716] | 97.6
79 | CC1CCCN(CC(C)NC(=O)Cn2cnc3ccc(F)cc3c2=O)C1 (stereo not shown) [CBK305953] | 91.5
80 | COc1ccc2c(c1)nc(SCC(O)c1ccccc1)n2C (stereo not shown) [CBK262508] | 97.6
81 | Cc1nc[nH]c1CN(CCCn1ccnc1)Cc1ccccc1Cl [CBK282473] | 103
82 | Cc1noc([C@@H]2C[C@H](NS(=O)(=O)c3ccc(C#N)cc3)CN2C)n1 [CBK288874] | 113
83 | N#Cc1ccccc1C(=O)N(CCO)Cc1ccccc1 [CBK304844] | 89.8
84 | O=C(CSc1ccc(Cl)cc1)N1CCN(c2ccc([N+](=O)[O-])c(N3CCOCC3)c2)CC1 [CBK269670] | 85.3
85 | COc1ccc(OC)c(C(O)c2nc3ccccc3n2C(C)C)c1 (stereo not shown) [CBK263474] | 92.7
86 | O=S(=O)(c1ccc(-n2cnc(Cl)c2Cl)cc1)N1CCCN(Cc2ccc3cccc(O)c3n2)CC1 [CBK063088] | 92

Same assay, conditions: human, hela cells, % viability, bulk resorufin, single well

Row | SMILES | viability at 28.5 h, 10 µM [%]
87 | COc1cc(/C=C2\C(=O)NC(=S)N(c3cccc(C)c3C)C2=O)ccc1OC(C)C(=O)O (stereo not shown) [CBK265132] | 98.7
88 | CC(C)(C)OC(=O)N1CCC2(CC1)OCc1cc(Br)ccc1O2 [CBK092251] | 99.4

Reference: paper PMC12040169 (PLOS Biology, 2025)
